Laboratory results published in PubChem BioAssay (NCI).
Values joined by “and” are separate entries in the source; they are usually repeats but may differ in a detail not shown here. Equal entries are not always repeated.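 Results reflect a 48-hour exposure of cells in 96-well plates to compound at five concentrations. The concentration for 50% growth inhibition is given as GI50. At the TGI there is no net growth.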

Legend:
Test in all cases: NCI tumour cell line growth inhibition, 48 h
SK-MEL-28 melanoma = tested on: SK-MEL-28 melanoma
SNB-75 CNS = tested on: SNB-75 CNS
NCI-H522 lung = tested on: NCI-H522 lung
HCT-116 colon = tested on: HCT-116 colon
EKVX NSCLC = tested on: EKVX NSCLC
RPMI-8226 leukemia = tested on: RPMI-8226 leukemia
OVCAR-4 ovarian = tested on: OVCAR-4 ovarian
A498 renal = tested on: A498 renal
PC-3 prostate = tested on: PC-3 prostate
DU-145 prostate = tested on: DU-145 prostate

| SMILES | TGI (SK-MEL-28 melanoma) | TGI (SNB-75 CNS) | TGI (NCI-H522 lung) [µM] | TGI (HCT-116 colon) [µM] | TGI (EKVX NSCLC) | TGI (RPMI-8226 leukemia) [µM] | TGI (OVCAR-4 ovarian) [µM] | TGI (A498 renal) | GI50 (SK-MEL-28 melanoma) | GI50 (SNB-75 CNS) | GI50 (NCI-H522 lung) | GI50 (HCT-116 colon) | GI50 (EKVX NSCLC) | GI50 (PC-3 prostate) | GI50 (DU-145 prostate) | TGI (DU-145 prostate) [µM] | GI50 (RPMI-8226 leukemia) | GI50 (A498 renal) | TGI (PC-3 prostate) [µM] | GI50 (OVCAR-4 ovarian) [µM] |
| --- | --- | --- | --- | --- | --- | --- | --- | --- | --- | --- | --- | --- | --- | --- | --- | --- | --- | --- | --- | --- |
| O=S1(=O)C[C@@H](O)[C@H](O)CS1 | > 100 µM | > 100 µM | > 100 | > 100 | > 100 µM | > 100 | > 100 | > 100 µM |  |  |  |  |  |  |  |  |  |  |  |  |
| CNC(=O)c1cccc(-c2ccc3c(N4CCOC[C@@H]4C)nc(N4CCOC[C@@H]4C)nc3n2)c1 | 0.72 µM and 3.01 µM and 0.671 µM | 0.373 µM and 0.647 µM and 0.403 µM | > 100 | > 100 | 0.765 µM and 2 µM |  |  | 0.0827 µM and 0.142 µM and 0.0801 µM | 0.041 µM and 0.123 µM and 0.0402 µM | 0.027 µM and 0.117 µM and 0.0316 µM | 0.0505 µM and 0.0991 µM and 0.0479 µM | 0.303 µM and 0.451 µM and 0.407 µM | 0.0998 µM and 0.139 µM | 0.0219 µM and 0.0809 µM and 0.0384 µM | 0.162 µM and 0.302 µM and 0.25 µM | > 100 | 0.0486 µM and 0.0473 µM and 0.0363 µM | 0.0183 µM and 0.0258 µM and < 0.0141 µM |  |  |
| COc1cc2c(/C=C3/C(=O)Nc4ccccc43)c(Cl)n(Cc3ccccc3[N+](=O)[O-])c2cc1C | 12.4 µM |  | 35.3 | 18.6 | 29.5 µM | > 100 | 22.2 | 32.6 µM | 3.47 µM |  | 12.2 µM | 2.71 µM | 5.66 µM | 5.08 µM | 6.74 µM | > 100 | 3.49 µM | 12.4 µM | 25.6 | 4.18 |
| CC(=O)Nc1ccc(C2[C@H]3C(=O)N(c4ccc(Cc5ccc(N6C(=O)[C@@H]7ON(c8ccccc8)C(c8ccc(NC(C)=O)cc8)[C@@H]7C6=O)cc5)cc4)C(=O)[C@H]3ON2c2ccccc2)cc1 (some centres undefined) | > 100 µM | > 100 µM | > 100 | > 100 | > 100 µM | > 100 | > 100 | > 100 µM |  |  |  |  |  |  |  |  |  |  |  |  |
| CN(C)c1ccc2c3c(c(=O)oc2c1)CCC3 | > 100 µM |  | > 100 | > 100 | > 100 µM | > 100 | > 100 | > 100 µM |  |  |  |  |  |  |  | > 100 |  |  | > 100 |  |
| COC(=O)c1ccc(N=NN(C)CO)cc1 | > 100 µM | > 100 µM | > 100 | > 100 | > 100 µM | > 100 | > 100 | > 100 µM |  |  |  |  |  |  |  |  |  |  |  |  |
| CC(=O)/C=C/c1ccc(C2CC(C)=Nc3c(ccc4c3C(=O)c3ccccc3C4=O)N2)cc1 (centres undefined) | > 100 µM | > 100 µM | > 100 | > 100 | > 100 µM | > 100 | > 100 | > 100 µM |  |  |  |  |  |  |  |  |  |  |  |  |
| CN(c1ccccc1)C(c1ccccc1)C(O)c1ccccc1 (centres undefined) | 41.7 µM | 64.4 µM | 36.9 | 33.7 | 62.7 µM | 49.3 | 34.5 | 37.5 µM |  |  |  |  |  |  |  |  |  |  |  |  |
| COc1ccc(/C=C2/C[N+](C)(C)C/C(=C/c3ccc(OC)cc3)C2=O)cc1 | 18.6 µM | > 100 µM | 37.9 | > 100 | > 100 µM | 31.1 | > 88.9 | > 100 µM |  |  |  |  |  |  |  |  |  |  |  |  |
| COC(=O)c1c(CC#N)cccc1CC#N |  | > 100 µM | > 100 | > 100 | > 100 µM | > 100 | > 100 |  |  |  |  |  |  |  |  |  |  |  |  |  |
| CCOC(=O)CC1=CSC2=NCCN12 | > 100 µM | > 100 µM | > 100 | > 100 | > 100 µM |  | > 100 | > 100 µM |  |  |  |  |  |  |  |  |  |  |  |  |
| N.N.NC(CS)C(=O)[O-].NC(CS)C(=O)[O-].[Pt+4] (centres undefined) | > 50 µM | > 50 µM | > 50 | > 50 | > 50 µM | > 50 | > 50 |  | > 50 µM | > 50 µM | > 50 µM | > 50 µM | > 50 µM |  |  |  | > 50 µM |  |  | > 50 |
| CC(=O)OC(C)(C)/C=C/C(=O)[C@](C)(O)[C@H]1[C@H](O)C[C@@]2(C)[C@@H]3CC=C4[C@@H](C[C@H](O)C(=O)C4(C)C)[C@]3(C)C(=O)C[C@]12C | < 0.01 µM | < 0.01 µM | < 0.01 | 1.22 | < 0.0221 µM | < 0.01 | < 0.01 | < 0.01 µM |  |  |  |  |  |  |  | 1.05 |  |  |  |  |
| O=C([CH-]C(=O)c1ccccc1)c1ccccc1.O=C([CH-]C(=O)c1ccccc1)c1ccccc1.[Nd+3].[OH-].[OH3+] | 44.8 µM | 7.25 µM | 13.3 | 19 | 43.8 µM |  | > 100 | 39.6 µM | 11.5 µM | 2.49 µM | 1.42 µM | 5.26 µM | 9.99 µM |  |  |  | 6.04 µM | 11 µM |  | 16.4 |
| O=c1cc2ccccc2nn1-c1ccccc1Cl | > 100 µM | > 100 µM |  | > 100 | > 100 µM | > 100 | > 100 | > 100 µM |  |  |  |  |  |  |  |  |  |  |  |  |
| CS(=O)c1ccc(COP(N)(=O)N(CCCl)CCCl)cc1 (centres undefined) | > 100 µM | > 100 µM | > 100 | > 100 | > 100 µM | > 100 | > 100 | > 100 µM |  |  |  |  |  |  |  |  |  |  |  |  |
| C=C1CC[C@@H]2C(C)(C)CCC[C@@]2(C)[C@@H]1Cc1cc(O)ccc1O | 9.83 µM | 7.14 µM | 3.66 | 16.8 | 29 µM | 15.9 | 3.72 | 27.6 µM |  |  |  |  |  |  |  |  |  |  |  |  |
| C[C@]12CC[C@@H]3c4ccc(O)cc4CC[C@H]3[C@@H]1CC[C@@H]2NS(=O)(=O)Cc1ccc(Cl)cc1 | 4.22 µM | 9.75 µM |  | 3.97 |  | 15.5 | 13.6 | 3.87 µM | 2.01 µM | 2.08 µM |  | 1.92 µM |  | 2.64 µM | 3.99 µM | 16.8 | 3.14 µM | 1.29 µM | 15 | 2.69 |
| O=C1C=Cc2ccccc2/C1=C/c1[nH]c(=O)[nH]c1O |  | 7.44 µM | 3.89 | 18.3 | 25.4 µM | > 100 | 23.4 | 10.6 µM |  | 2.14 µM | 1.3 µM | 4.12 µM | 2.46 µM | 3.61 µM | 5.8 µM | 76.8 | 45.2 µM | 2.87 µM | > 100 | 4.22 |
| O=C(O)C12C3CCCC1C2CC3 (centres undefined) | > 100 µM | > 100 µM | > 100 | > 100 | > 100 µM | > 100 |  | > 100 µM |  |  |  |  |  |  |  |  |  |  |  |  |
| CC1NOC(=O)C1N=Nc1ccccc1Cl (centres undefined) | > 100 µM | 62.4 µM | 34.2 | > 100 | > 100 µM | 54.7 | > 100 | 49.3 µM |  |  |  |  |  |  |  |  |  |  |  |  |
